Data: patent publication EP4725507A1, “POLYPEPTIDE CONJUGATE, PHARMACEUTICAL COMPOSITION CONTAINING POLYPEPTIDE CONJUGATE AND USE THEREOF” (Nanjing Anji Biotechnology Co., Ltd., priority 2023, dated 2025)
Converted amounts (≈) assume the structure as drawn. Values belong to the compound of their own block, whether it stands above or below them.

Legend:
[1] = test system: non-small cell lung cancer A549 xenograft tumors; experiment: In vivo tumor-inhibitory activity of DOC-AI, A549 xenograft; set-up: species or system BALB/c nude mice; conditions: 6.20 µmol/Kg, 4 days on, 3 days off until day 21
Protocol: Non-small cell lung cancer A549 cells in the vigorous growth stage were taken and inoculated subcutaneously into the right axilla of BALB/c nude mice (Nanjing Zhonghua Biotechnology Co., Ltd.) under sterile conditions, with a cell inoculation amount of 1×10^7. The diameter of transplanted tumors in nude mice was measured with a vernier caliper. When the tumors grew to approximately 50 mm^3, 30 tumor-bearing nude mice with good growth status and relatively uniform tumor size were selected and divided into 5 groups, with 6 mice in each group. The administration frequency was continuous administration for 4 days followed by an interval of 3 days, and this cycle was repeated until day 21. […] The tumor diameter was measured every other day, and the body weight of the nude mice was weighed simultaneously during the measurement of the tumor diameter. After 21 days of administration, the nude mice were euthanized, the tumor inhibition rate (%) was calculated, and the tumor masses were peeled off and weighed.

[2] = test system: U87-MG (human brain glioblastoma cells); experiment: Tumor cell proliferation inhibition (CCK8); type: cell-based; conditions: U-87 MG, 72 h
Source text: (§1) Human highly metastatic hepatocellular carcinoma cells HCCLM3, human highly metastatic gastric cancer cells MKN45, human gastric cancer cells BGC-823 and MGC-803, non-small cell lung cancer cells A549, human pancreatic cancer cells ASPC-1, human colon cancer cells LoVo, human ovarian cancer cells A2780, human cervical cancer cells SiHa, human malignant melanoma cells SK-mel-2 and M14, human osteosarcoma cells Saos-2, human bladder transitional cell carcinoma cells T24, human brain glioblastoma cells U87-MG, human lymphoma cells Raji, and human epidermal cancer cells A431 were selected for the experiment. Among them, HCCLM3 cells, MKN45 cells, BGC-823 cells, MGC-803 cells, A431 cells and A549 cells were provided by Nanjing Anji Biotechnology Co., Ltd., and the other cells were provided by Nanjing Ouji Pharmaceutical Technology Service Co., Ltd.
(§2) The aforementioned tumor cells were preserved in a medium containing 10% fetal bovine serum and 1% penicillin-streptomycin, and incubated at 37°C with 5% CO2 and 95% humidity. The aforementioned tumor cells were cultured in T75 flasks with an experimental cell density of 80%. The aforementioned tumor cell lines were mycoplasma-negative.
(§3) Tumor cells in the logarithmic growth phase were taken for the experiment. The cells were digested, counted, and prepared into a cell suspension with a concentration of 1×10^5 cells/mL, which was then inoculated into a 96-well plate (100 µL per well). The 96-well plate was incubated in a 37°C, 5% CO2 incubator for 24 hours. […] After incubating the plate in the incubator for 72 h, the cell morphology of each group was observed under a microscope. Then, 10 µL of CCK8 solution (Nanjing Enjing Biotechnology Co., Ltd.) was added to each well, and the plate was further incubated in the cell incubator for 4 h. After incubation, the absorbance was measured at 450 nm, and the tumor cell proliferation inhibition rate was calculated. The efficiency ratio was the ratio of the IC50 value of the free drug to that of the polypeptide conjugate. Table 1 Tumor cell proliferation inhibition rates of polypeptide conjugates

[3] = test system: A549 (non-small cell lung cancer cells); experiment: Tumor cell proliferation inhibition (CCK8); type: cell-based; conditions: Homo sapiens, 72 h
Source text: as §1, §2, §3

[4] = test system: LoVo (human colon cancer cells); experiment: Tumor cell proliferation inhibition (CCK8); type: cell-based; conditions: 72 h
Source text: as §1, §2, §3

[5] = test system: ASPC-1 (human pancreatic cancer cells); experiment: Tumor cell proliferation inhibition (CCK8); type: cell-based; conditions: ASPC1, 72 h
Source text: as §1, §2, §3

[6] = test system: HCCLM3 (human highly metastatic hepatocellular carcinoma cells); experiment: Tumor cell proliferation inhibition (CCK8); type: cell-based; conditions: 72 h
Source text: as §1, §2, §3

[7] = test system: SiHa (human cervical cancer cells); experiment: Tumor cell proliferation inhibition (CCK8); type: cell-based; conditions: 72 h
Source text: as §1, §2, §3

[8] = test system: M14 (human malignant melanoma cells); experiment: Tumor cell proliferation inhibition (CCK8); type: cell-based; conditions: 72 h
Source text: as §1, §2, §3

[9] = test system: SK-mel-2 (human malignant melanoma cells); experiment: Tumor cell proliferation inhibition (CCK8); type: cell-based; conditions: 72 h
Source text: as §1, §2, §3

[10] = test system: gastric cancer MKN45 xenograft tumors; experiment: In vivo tumor-inhibitory activity of DOC-AI, MKN45 xenograft; set-up: species or system BALB/c nude mice; conditions: 6.20 µmol/Kg
Protocol: (§4) Non-small cell lung cancer A549 cells and human gastric cancer MKN-45 cells were preserved in F12-K medium containing 10% fetal bovine serum and 1% penicillin + streptomycin, and incubated at 37°C with 5% CO2 and 95% humidity. The aforementioned cells were cultured in T175 flasks with an experimental cell density of 80%. The aforementioned cell lines were mycoplasma-negative. Both A549 cells and MKN-45 cells were provided by Nanjing Anji Biotechnology Co., Ltd.
Gastric cancer MKN45 cells in the vigorous growth stage were taken and inoculated subcutaneously into the right axilla of BALB/c nude mice (Hangzhou Ziyuan Laboratory Animal Technology Co., Ltd.) under sterile conditions, with a cell inoculation amount of 1×10^7. The diameter of transplanted tumors in nude mice was measured with a vernier caliper. When the tumors grew to approximately 50 mm^3, 18 tumor-bearing nude mice with good growth status and relatively uniform tumor size were selected and divided into 3 groups, with 6 mice in each group. The administration frequency was once every 3 days, and this cycle was repeated until day 21. The anti-tumor effect in the nude mice was dynamically observed by measuring the tumor diameter. The tumor diameter was measured every other day, and the body weight of the nude mice was weighed simultaneously during the measurement of the tumor diameter. After 21 days of administration, the nude mice were euthanized, the tumor inhibition rate (%) was calculated, and the tumor masses were peeled off and weighed. Table 7 Results of Detection of In Vivo Tumor-Inhibitory Activity of DOC-AI

[11] = Solubility in water (HPLC, saturated solution); type: physicochemical; conditions: thermodynamic from solid, in water (ultrapure)
Protocol: 25, 50, 100, 200, 300, and 400 µL of the above stock solutions were precisely measured, added into 1 mL volumetric flasks, and diluted to the mark with methanol to obtain a series of standard solutions with concentrations of 25, 50, 100, 200, 300, and 400 µg/mL, respectively. The peak areas of the series of standard solutions were detected by HPLC (mobile phase: 0.065% TFA in water + 0.05% TFA; chromatographic column: YMC-Triart C18; wavelength: 220 nm) to construct a concentration-peak area standard curve, where the abscissa represents concentration and the ordinate represents peak area.
The peak area of the sample was detected by HPLC, and its saturation in water was calculated through the concentration-peak area standard curve. Table 6 Results of detection of solubility of polypeptide conjugates in water

[12] = test system: T24 (human bladder transitional cell carcinoma cells); experiment: Tumor cell proliferation inhibition (CCK8); type: cell-based; conditions: 72 h
Source text: as §1, §2
as §3, with “h.” for “h. After incubation, the absorbance was measured at 450 nm, and the tumor cell proliferation inhibition rate was calculated. The efficiency ratio was the ratio of the IC50 value of the free drug to that of the polypeptide conjugate. Table 1 Tumor cell proliferation inhibition rates of polypeptide conjugates”

[13] = test system: A431 (human epidermal cancer cells); experiment: Tumor cell proliferation inhibition (CCK8); type: cell-based; conditions: A-431, 72 h
Source text: as §1, §2
as §3, with “h.” for “h. After incubation, the absorbance was measured at 450 nm, and the tumor cell proliferation inhibition rate was calculated. The efficiency ratio was the ratio of the IC50 value of the free drug to that of the polypeptide conjugate. Table 1 Tumor cell proliferation inhibition rates of polypeptide conjugates”

[14] = test system: Raji (human lymphoma cells); experiment: Tumor cell proliferation inhibition (CCK8); type: cell-based; conditions: 72 h
Source text: as §1, §2
as §3, with “h.” for “h. After incubation, the absorbance was measured at 450 nm, and the tumor cell proliferation inhibition rate was calculated. The efficiency ratio was the ratio of the IC50 value of the free drug to that of the polypeptide conjugate. Table 1 Tumor cell proliferation inhibition rates of polypeptide conjugates”

[15] = test system: MGC-803 (human gastric cancer cells); experiment: Tumor cell proliferation inhibition (CCK8); type: cell-based; conditions: 72 h
Source text: as §1, §2
as §3, with “h.” for “h. After incubation, the absorbance was measured at 450 nm, and the tumor cell proliferation inhibition rate was calculated. The efficiency ratio was the ratio of the IC50 value of the free drug to that of the polypeptide conjugate. Table 1 Tumor cell proliferation inhibition rates of polypeptide conjugates”

[16] = test system: A2780 (human ovarian cancer cells); experiment: Tumor cell proliferation inhibition (CCK8); type: cell-based; conditions: 72 h
Source text: as §1, §2
as §3, with “h.” for “h. After incubation, the absorbance was measured at 450 nm, and the tumor cell proliferation inhibition rate was calculated. The efficiency ratio was the ratio of the IC50 value of the free drug to that of the polypeptide conjugate. Table 1 Tumor cell proliferation inhibition rates of polypeptide conjugates”

[17] = test system: MKN45 (human highly metastatic gastric cancer cells); experiment: Tumor cell proliferation inhibition (CCK8); type: cell-based; conditions: MKN-45, 72 h
Source text: as §1, §2
as §3, with “h.” for “h. After incubation, the absorbance was measured at 450 nm, and the tumor cell proliferation inhibition rate was calculated. The efficiency ratio was the ratio of the IC50 value of the free drug to that of the polypeptide conjugate. Table 1 Tumor cell proliferation inhibition rates of polypeptide conjugates”

[18] = test system: Saos-2 (human osteosarcoma cells); experiment: Tumor cell proliferation inhibition (CCK8); type: cell-based; conditions: 72 h
Source text: as §1, §2
as §3, with “h.” for “h. After incubation, the absorbance was measured at 450 nm, and the tumor cell proliferation inhibition rate was calculated. The efficiency ratio was the ratio of the IC50 value of the free drug to that of the polypeptide conjugate. Table 1 Tumor cell proliferation inhibition rates of polypeptide conjugates”

[19] = test system: BGC-823 (human gastric cancer cells); experiment: Tumor cell proliferation inhibition (CCK8); type: cell-based; conditions: 72 h
Source text: as §1, §2
as §3, with “h.” for “h. After incubation, the absorbance was measured at 450 nm, and the tumor cell proliferation inhibition rate was calculated. The efficiency ratio was the ratio of the IC50 value of the free drug to that of the polypeptide conjugate. Table 1 Tumor cell proliferation inhibition rates of polypeptide conjugates”

[20] = test system: human gastric cancer cell MKN45 xenograft tumors; experiment: In vivo tumor-inhibitory activity of PTX-AI, MKN45 xenograft; set-up: species or system BALB/c nude mice; conditions: 5.28 µmol/Kg, once every 3 days, 21 days
Protocol: as §4
Human gastric cancer cells MKN-45 in the vigorous growth stage were taken and inoculated subcutaneously into the right axilla of BALB/c nude mice under sterile conditions, with a cell inoculation amount of 5×10^6. The diameter of transplanted tumors in nude mice was measured with a vernier caliper. When the tumors grew to approximately 50mm^3, […] tumor-bearing nude mice with good growth status and relatively uniform tumor size were selected, and divided into 6 groups, including 10 mice in the model group and 8 mice in each of the remaining groups. The anti-tumor effect of the test substance was dynamically observed by measuring the tumor diameter. The tumor diameter was measured every other day, and the body weight of the nude mice was weighed simultaneously during the measurement of the tumor diameter. After 21 days of administration, the nude mice were euthanized, the tumor inhibition rate (%) was calculated, and the tumor masses were peeled off and weighed. Table 3 Detection of In Vivo Tumor-Inhibitory Activity of PTX-AI

[21] = test system: A431 (human epidermal cancer cells); experiment: Tumor cell proliferation inhibition (CCK8); type: cell-based; conditions: IC50 of free drug / IC50 of polypeptide conjugate
Source text: as §1, §2, §3

[22] = test system: MGC-803 (human gastric cancer cells); experiment: Tumor cell proliferation inhibition (CCK8); type: cell-based; conditions: IC50 of free drug / IC50 of polypeptide conjugate
Source text: as §1, §2, §3

[23] = test system: MKN45 (human highly metastatic gastric cancer cells); experiment: Tumor cell proliferation inhibition (CCK8); type: cell-based; conditions: IC50 of free drug / IC50 of polypeptide conjugate
Source text: as §1, §2, §3

[24] = test system: BGC-823 (human gastric cancer cells); experiment: Tumor cell proliferation inhibition (CCK8); type: cell-based; conditions: IC50 of free drug / IC50 of polypeptide conjugate
Source text: as §1, §2, §3

[25] = MKN45 xenograft, once every 3 days until day 21

IC50 [2]: 5.4 nM | IC50 [3]: 33.5 nM | IC50 [4]: 992 nM | IC50 [5]: 4.35 nM | IC50 [6]: 431 nM | IC50 [7]: 0.235 nM | IC50 [8]: 3.68 nM | IC50 [9]: 0.214 nM | solubility at 15 min [11]: 0.0274 µg/mL (≈ 0.0339 µM)
SMILES: CC(=O)O[C@@]12CO[C@@H]1C[C@H](O)[C@@]1(C)C(=O)[C@H](O)C3=C(C)[C@@H](OC(=O)[C@H](O)[C@@H](NC(=O)OC(C)(C)C)c4ccccc4)C[C@@](O)([C@@H](OC(=O)c4ccccc4)[C@H]21)C3(C)C [DOC, docetaxel]
Tumor Inhibition Rate [1]: 59.55% | Tumor Weight [1]: 283.00 ± 179.83 mg | body weight changes ([10]; MKN45 xenograft nude mice, during the administration period): showed weight loss | Tumor Inhibition Rate [10, 25]: 73.76±13.15% | Tumor Weight [10, 25]: 579 ± 391 mg | Final Tumor Volume ([10]; MKN45 xenograft, once every 3 days until day 21, in mm³ (unit assumed)): 256.67±391.25

IC50 [12]: 38.6 nM | IC50 [13]: 0.17 nM | IC50 [14]: 43.9 nM | IC50 [15]: 23.6 nM | IC50 [16]: 0.19 nM | IC50 [17]: 3.21 nM | IC50 [18]: 0.77 nM | IC50 [19]: 8.11 nM | IC50 [6]: 9.4 nM | solubility at 15 min [11]: 0.12 µg/mL (≈ 0.141 µM)
SMILES: CC(=O)O[C@H]1C(=O)[C@@]2(C)[C@H]([C@H](OC(=O)c3ccccc3)[C@]3(O)C[C@H](OC(=O)[C@H](O)[C@@H](NC(=O)c4ccccc4)c4ccccc4)C(C)=C1C3(C)C)[C@]1(OC(C)=O)CO[C@@H]1C[C@@H]2O [PTX, paclitaxel]
Tumor Inhibition Rate [20]: 47.6% | Tumor Weight [20]: 0.791 ± 0.151 g | Final Tumor Volume ([20]; in mm³ (unit assumed)): 782.0±105.9

SMILES: CC(=O)O[C@H]1C(=O)[C@@]2(C)[C@H]([C@H](OC(=O)c3ccccc3)[C@]3(O)C[C@H](OC(=O)[C@H](OC(=O)CCCC(=O)N[C@@H](CCCNC(=N)N)C(=O)N[C@@H](CO)C(=O)N4CCC[C@H]4C(=O)N[C@@H](Cc4ccc(O)cc4)C(=O)N[C@@H](C)C(=O)N[C@@H](CC(N)=O)C(=O)N[C@@H](CO)C(=O)O)[C@@H](NC(=O)c4ccccc4)c4ccccc4)C(C)=C1C3(C)C)[C@]1(OC(C)=O)CO[C@@H]1C[C@@H]2O [PTX-5-AI]
Efficiency Ratios [21]: 2.13 | Efficiency Ratios [22]: 1.27 | Efficiency Ratios [23]: 1.65 | Efficiency Ratios [24]: 1.90
